{"source": "patent US20230312577A1", "about": "“DUAL KINASE-BROMODOMAIN INHIBITORS” (MONASH UNIVERSITY, priority 2020, published 2023)", "key": {"BRD4": {"target": "BRD4 (Homo sapiens, UniProt O60885)", "test": "Cellular thermal shift assay (CETSA) in Ramos cells", "assay_type": "cell-based", "set-up": "endogenous in cells", "details": "20 μM, 40 min, vs DMSO", "procedure": "(§1) Ramos cells (human Burkitt lymphoma cell line) at 20×10^6 were washed in PBS followed by resuspension in 5 mL serum-free RPMI. They were treated either with Cpd 010 or DMSO at 20 μM for 40 min at 37° C. with 5% CO2. Cells were then collected, resuspended in PBS and separated into PCR tubes. They were heated at designated temperature for strictly 3 min followed by another 3 min at 25° C. on ABI Applied Biosystems 9902 Veriti PCR Thermal Cycler. Immediately, they were placed in liquid nitrogen for snap freezing. The samples were freeze-thawed until the final samples were place on ice. They were centrifuged and supernatants were collected. Loading dye was mixed and these were processed as per our Western Blot protocol (see above). The following primary antibodies were used; rabbit BRD4 (Cell Signaling, #13440), rabbit BRD2 (Cell Signaling, #5848), and mouse anti-β-actin (Sigma-Aldrich, clone AC-74)."}, "Vk*MYC myeloma cells": {"system": "Vk*MYC myeloma cells", "test": "In vivo therapeutic assessment, Vk*MYC multiple myeloma mouse model", "details": "once daily, 5 days a week, 3 weeks", "procedure": "For Vk*MYC multiple myeloma mouse models, wild type C57/B16 mice were irradi-ated with 2 fractions of 3.3Gy (Gammacell® 40 caesium source, Atomic Energy of Canada Ltd., Ontario, Canada) prior to transplantation of Vk*MYC myeloma cells (2.4×10^5). Mice were monitored for tumour progression by measuring M-proteins via serum protein electropho-resis (SPEP). Mice were treated with 3 weeks of Cpd 010 or vehicle once daily (5 days a week) for 3 weeks when their average SPEP has reached 7-10%. Serial measurement of SPEP was carried out during and post therapy. Overall survival was recorded."}, "BRD2": {"target": "T1, BRD2 (Homo sapiens, UniProt P25440)", "T1 construct": "endogenous in cells; host or cells: Ramos", "T1 sequence (P25440 whole entry)": "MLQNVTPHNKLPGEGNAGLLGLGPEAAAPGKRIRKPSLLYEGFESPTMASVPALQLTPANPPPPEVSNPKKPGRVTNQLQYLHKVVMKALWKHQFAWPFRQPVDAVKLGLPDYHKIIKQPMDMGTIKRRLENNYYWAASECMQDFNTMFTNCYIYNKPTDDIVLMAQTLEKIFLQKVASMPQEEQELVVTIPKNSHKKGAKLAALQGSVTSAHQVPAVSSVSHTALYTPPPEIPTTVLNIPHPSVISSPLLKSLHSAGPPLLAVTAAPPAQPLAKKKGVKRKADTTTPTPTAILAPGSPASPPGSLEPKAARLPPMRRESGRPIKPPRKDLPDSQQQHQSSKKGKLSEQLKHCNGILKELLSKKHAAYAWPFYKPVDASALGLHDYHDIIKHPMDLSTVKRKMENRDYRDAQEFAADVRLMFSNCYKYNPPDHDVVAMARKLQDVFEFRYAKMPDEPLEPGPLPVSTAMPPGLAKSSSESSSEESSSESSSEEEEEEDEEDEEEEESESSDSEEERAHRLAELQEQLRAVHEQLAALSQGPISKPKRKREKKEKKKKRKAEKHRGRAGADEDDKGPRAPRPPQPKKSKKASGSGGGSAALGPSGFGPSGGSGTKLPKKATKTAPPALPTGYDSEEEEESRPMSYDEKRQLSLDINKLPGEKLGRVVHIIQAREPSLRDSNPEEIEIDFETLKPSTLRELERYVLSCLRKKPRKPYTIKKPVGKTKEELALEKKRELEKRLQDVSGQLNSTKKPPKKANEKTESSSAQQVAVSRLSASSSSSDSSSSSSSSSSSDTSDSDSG", "test": "Cellular thermal shift assay (CETSA) in Ramos cells", "assay_type": "cell-based", "details": "20 μM, 40 min, vs DMSO", "procedure": "as §1"}, "[1]": {"system": "pAKT (PI3K substrate) and MYC (BET target protein)", "test": "Western Blot analysis in OPM2 cells", "assay_type": "cell-based, human", "details": "4 hours", "procedure": "OPM2 cells (1.2×10^6) were treated with Cpd 010 or DMSO control at indicated concentrations for 4 hours. Lysates were prepared in ice-cold RIPA lysis buffer (Thermofisher, Life Technologies) and supplemented with Halt protease phosphatase inhibitor cocktail (Thermofisher, Pierce Biotechnology). Protein concentrations of lysate samples were determined by bicinchoninic acid assay (BCA assay) using the Thermo Scientific Pierce BCA Protein Assay Kit (ThermoFisher, Life Technologies) as per manufacturer's instructions. Absorbance for protein concentration estimation was measured using a BMG OPTIMA (Fluostar optima, BMG Labtech). Lysates (25-50 μg) were separated on pre-cast gels (Bis-Tris 4-12% gradient gels) (Bolt, Life Technologies) and transferred onto polyvinylidene difluoride (PVDF) membranes (Immobilon-FL, Merck). The membranes were sequentially incubated with primary antibodies o.n. at 4° C.; mouse anti-β-actin (Sigma-Aldrich, clone AC-74), rabbit anti-cMyc (Cell Signaling, #9402S), rabbit anti-pAKT Ser473 (Cell Signaling, #9271), rabbit anti-pS6 Ser240/244 (Cell Signaling, #2215). Subsequently they were incubated with horse radish pe-roxidase (HRP)-conjugated secondary antibodies for 1-2 h at r.t before the detection of proteins by enzymatic (chemiluminescent) reaction using a ChemiDoc^Tm XRS+ System (Bio-Rad La-boratories Inc.). […]"}, "Eμ-Myc lymphoma cells": {"system": "Eμ-Myc lymphoma cells", "test": "In vivo therapeutic assessment, Eμ-Myc lymphoma transplant", "set-up": "species or system mouse", "details": "45 mg/kg IP, 5 days per week, 3 weeks", "procedure": "For transplantation of Eμ-Myc lymphomas in vivo, cohorts of 6-8 week old B6.SJL-PtprcPepc/BoyJ (B6.CD45.1) mice were inoculated via tail vein injection with 5×10^5 Eμ-Myc lymphoma cells (C57BL/6 (CD45.2)). Cpd 010 and vehicle controls (30% HPBCD) were prepared as above. Three days after lymphoma inoculation, intraperitoneal (IP) injection of compound 10 (45 mg/kg), or vehicle (30% HPBCD) was administered 5 days per week, for a total of 3-weeks of therapy. Detection of tumour cells on peripheral blood was carried out by flow cytometric analysis using the following antibodies; fixable Viability dye-AmCyan (Zom-bie Aqua™ Fixable Viability Kit, BioLegend), anti-mouse CD19-PE (ThermoFisher Scientific, #12-0193-82), anti-mouse CD45R (B220)-APC (ThermoFisher Scientific, #RA3-6B2), anti-mouse CD45.1-PerCP-Cy™5.5 (ThermoFisher Scientific, #A20), anti-mouse CD45.2-FITC (BioLegend, #104). Data were collected on a BD LSR-Fortessa X20 (BD Biosciences). The data were analysed using FlowJo Software, version 10.0.7 (Tree Star)."}, "[2]": {"test": "In vivo assessment of maximum tolerated dose (MTD)", "text": "The Peter MacCallum Cancer Centre Animal Ethics Committee approved all in vivo procedures in this study. B6.SJL-PtprcPepc/BoyJ (B6.CD45.1) mice were purchased from the Walter and Eliza Hall Institute (Melbourne, VIC). For enhanced solubility, Cpd 010 was reconstituted in double dose with 60% Hydroxypropyl-B-cyclodextrin (HPBCD; Cyclodextrin Technologies Development Inc.) and subsequently diluted with ultrafiltered water in 1:1 ratio prior to injection. Vehicle control was 60% HPBCD subsequently diluted 1:1 ratio with ultrafiltered water prior to injection for the final concentration of 30% HPBCD. MTD was carried out in 6-8 week old, non-tumour bearing female mice starting from 25 mg/kg of Cpd 010, 5 day intraperitoneal injection. Six mice received Cpd 010 and two mice received vehicle (30% HPBCD). Full Blood Examination (FBE), serum, spleen weight and morphological examination for toxicity were assessed on day 8 and day 15. In the absence of toxicity further dose escalation was carried out."}, "[3]": {"system": "MLL-AF9 cells (IBET-151-sensitive and IBET-151-resistant)", "test": "Apoptosis assay in BET-inhibitor-resistant cells (Annexin V/PI)", "assay_type": "cell-based, mouse", "details": "72 h, Annexin V/PI", "procedure": "Mouse AML cells; MLL-AF9 (IBET-151-sensitive and IBET-151-resistant) (5×10^4) were treated with indicated compounds for 72 h. Apoptotic analysis was performed by flow cytometry using Annexin V/propidium iodide (PI) stains. Data were collected on a BD LSR-Fortessa X20 (BD Biosciences) and analysed using FlowJo Software, version 10.0.7 (Tree Star). IC50 were calculated using the GraphPad Prism Software Version 7.0c. Data are representative of biological triplicates."}}, "data": [{"smiles": "CC(=O)N1c2ccc(-c3ccc(CNC(=O)c4cn5cc(-c6cnc(N)nc6)nc(N6CCOCC6)c5n4)cc3)cc2CC[C@@H]1C", "note": "[Cpd 010, (S)-N-(4-(1-acetyl-2-methyl-1,2,3,4-tetrahydroquinolin-6-yl)benzyl)-6-(2-aminopyrimidin-5-yl)-8-morpholinoimidazo[1,2-a]pyrazine-2-carboxamide]", "values": [{"measurement": "clearance of BRD4 protein with increasing temperature", "setting": "BRD4", "value": "delayed clearance"}, {"measurement": "tumour burden (M-proteins) on treatment", "setting": "Vk*MYC myeloma cells; SPEP", "value": "reduce tumour burden (M-proteins)"}, {"measurement": "median survival", "setting": "Vk*MYC myeloma cells; vehicle 196.5 days", "value": 243, "unit": "days"}, {"measurement": "clearance of BRD2 protein with increasing temperature", "setting": "BRD2", "value": "delayed clearance"}, {"measurement": "levels of pAKT and MYC", "setting": "[1]", "value": "suppressed levels of both pAKT (PI3K substrate) and MYC (BET target protein) at all test concentrations"}, {"measurement": "curative response", "setting": "Eμ-Myc lymphoma cells", "value": 90, "unit": "%"}, {"measurement": "survival", "setting": "Eμ-Myc lymphoma cells; p<0.0001", "value": "statistically significant survival benefit"}, {"measurement": "spleen and body weight", "setting": "[2]; 50 mg/kg", "value": "no changes in spleen and body weight"}, {"measurement": "FBE at day 8", "setting": "[2]; 50 mg/kg, day 8", "value": "moderate thrombocytopenia"}, {"measurement": "FBE on day 15", "setting": "[2]; 50 mg/kg, day 15", "value": "recovered to the normal level"}, {"measurement": "MTD at 5 day", "setting": "[2]; B6.SJL-Ptprc<a>Pepc<b>/BoyJ (B6.CD45.1), mouse, in vivo, ip, non-tumour bearing female mice, 5 day intraperitoneal injection", "value": 50, "unit": "mg/kg"}, {"measurement": "apoptosis in I-BET151-resistant MLL-AF9 cells", "setting": "[3]", "value": "capable of inducing apoptosis in I-BET151-resistant MLL-AF9 cells, comparable to the I-BETE151-sensitive cells"}]}]}
